Measurements reported in patent US20230391772A1, “METHODS AND COMPOSITIONS FOR TARGETED PROTEIN DEGRADATION” (Ranok Therapeutics (Hangzhou) Co. Ltd., priority 2020, published 2023).
pEC50, pIC50: −log10 of the molar value.

Assays:
[1] = system: MIA PaCa-2 human pancreatic carcinoma; assay: MIA PaCa-2 CCK-8 proliferation assay; format: cell-based; conditions: MIA PaCa-2 cells
How it was run: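 KRAS(G12C) lines were used: MIA PaCa-2 with 2 copies, and NCI-H358 and NCI-H23 with 1 copy each. Cells were treated with 3-fold compound dilutions from 20 μM to 1.02 nM, and proliferation was read by CCK-8 absorbance. % inhibition was calculated against DMSO-treated cells after subtracting the cell-free medium blank.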

KRAS(G12C) [2] = target: T1, KRAS(G12C) (Homo sapiens, UniProt P01116, G12C); assay: KRAS(G12C)/SOS1 homogeneous time-resolved fluorescence (HTRF) assay; design: purchased Cisbio 63ADK000CB16PEG; conditions: absence of GTP, 4° C. for 3 hr, read-out: KRAS (G12C) binding
How it was run: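 Three-hour incubation at 4 °C of 3-fold compound dilutions (lowest 1.02 nM) with KRAS(G12C), SOS1 and detection reagents, GTP absent. Disruption of the KRAS(G12C)/SOS1 complex detected by time-resolved fluorescence.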

KRAS(G12C) [3] = target: T1, KRAS(G12C); assay: KRAS(G12C) Western blot protein degradation assay in LU65A cells; format: cell-based; design: LU65A human lung cancer cell line, which expresses KRAS(G12C); host or cells: LU65A; conditions: 6 hr
Description: The following cancer cell lines were employed: BT-474 human breast carcinoma (ATCC, #HTB-20); MIA PaCa-2 human pancreatic carcinoma [2 copies KRAS(G12C)](ATCC, #CRL-1420); NCI-H23 human non-small cell lung cancer [1 copy KRAS(G12C)](ATCC, #CRL-5800); NCI-H358 human non-small cell lung cancer [1 copy KRAS(G12C)](ATCC, #CRL-5807); LU65A human lung carcinoma (Pharmaron, Beijing, China). Cell lines were cultured essentially according to ATCC and Pharmaron recommendations.
KRAS(G12C) Western Blot Protein Degradation Assay
The MIA PaCa-2 human pancreatic carcinoma cell line and LU65A human lung cancer cell line, which expresses KRAS(G12C), were seeded in 6- or 12-well tissue culture plates, and after 1 hr, test compounds were added at various concentrations and incubated at 37° C./5% CO2 for 48 hr (MIA Paca-2) and 6 hr (LU65A) respectively. Cells were then washed with cold PBS, aspirated and cold RIPA buffer containing a protease/phosphatase inhibitor cocktail was added to lyse cells. After centrifugation, the total protein concentrations of cell lysates were determined using the BCA protein assay. Samples were normalized for equivalent protein concentrations, 5×SDS-PAGE loading buffer added and denatured at 100° C. for 10 min. 20 μl of each sample/well was loaded on a SDS-PAGE gel and electrophoresed for 20 min at 80 V, then 120 V for 1.5 hr. Gels were then electroblotted to nitrocellulose membranes using a wet-transfer method at 250 mA for 2.5 hr. Membranes were incubated with blocking buffer for 1 hr and washed 3 times with TBST for 5 min. Membranes were then incubated with anti-KRAS (Sigma-Aldrich, #SAB1404011) and anti-β-Actin monoclonal antibodies (Cell Signaling Technology, #3700) diluted in blocking buffer at 4° C. overnight per the manufacturer's recommendations. After washing 3 times, blots were incubated with appropriately labeled secondary antibodies for 1 hr at room temperature and washed again. Fluorescence imaging and quantitation was performed using a LI-COR Odyssey. Results was analyzed using GraphPad Prism 7 software. Compound degradation of was determined by the following equation and DC50 values (the concentration at which 50% of the maximal degradation of KRAS occurs) calculated using GraphPad Prism 7 software:
% Inhibition=100−(D−B)/(S−B)*100%. • S: Fluorescence intensity of cells with antibody • D: Fluorescence intensity of compound-treated cells with antibody • B: Fluorescence intensity of cells without antibody

T1 sequence (P01116 1-188 isoform P01116-2 G12C): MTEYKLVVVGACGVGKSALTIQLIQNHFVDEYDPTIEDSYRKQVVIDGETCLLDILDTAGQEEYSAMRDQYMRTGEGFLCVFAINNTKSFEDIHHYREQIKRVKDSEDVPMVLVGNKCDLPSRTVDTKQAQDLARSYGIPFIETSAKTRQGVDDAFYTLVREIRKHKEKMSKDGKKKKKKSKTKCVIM

pEC50 ([1]; Homo sapiens, MIA PaCa-2, 72 h) | pIC50 (KRAS(G12C) [2]) | DC50 (KRAS(G12C) [3]) | pEC50 ([1]; 72 hr) | SMILES
6.00 to 7.00 | > 7.00 | > 1000 nM | – | C=CC(=O)N1CCN(c2nc(OC[C@@H]3CC[C@H](CN4CCN(Cc5ccc(-n6c(O)nnc6-c6cc(C(C)C)c(O)cc6O)cc5)CC4)N3C)nc3c2CCN(c2cccc4ccc(F)c(Cl)c24)C3)C[C@@H]1CC#N [Compound 268, 2-[(2S)-4-[7-(8-chloro-7-fluoronaphthalen-1-yl)-2-{[(2S,5R)-5-{[4-({4-[3-(2,4-dihydroxy-5-isopropylphenyl)-5-hydroxy-1,2,4-triazol-4-yl]phenyl}methyl)piperazin-1-yl]methyl}-1-methylpyrrolidin-2-yl]methoxy}-5H,6H,8H-pyrido[3,4-d]pyramidin-4-yl]-1-(prop-2-enoyl)piperazin-2-yl]acetonitrile]
6.00 to 7.00 | > 7.00 | > 1000 nM | – | C=CC(=O)N1CCN(c2nc(OC[C@@H]3C[C@H](N4CCN(Cc5ccc(-n6c(O)nnc6-c6cc(C(C)C)c(O)cc6O)cc5)CC4)CN3C)nc3c2CCN(c2cccc4cccc(Cl)c24)C3)C[C@@H]1CC#N [Compound 241, 2-[(2S)-4-[7-(8-chloronaphthalen-1-yl)-2-{[(2S,4S)-4-[4-({4-[3-(2,4-dihydroxy-5-isopropylphenyl)-5-hydroxy-1,2,4-triazol-4-yl]phenyl}methyl)piperazin-1-yl]-1-methylpyrrolidin-2-yl]methoxy}-5H,6H,8H-pyrido[3,4-d]pyrimidin-4-yl]-1-(prop-2-enoyl)piperazin-2-yl]acetonitrile]
> 7.00 | > 7.00 | > 1000 nM | – | C=CC(=O)N1CCN(c2nc(OC[C@@H]3CC[C@H](CN4CCN(Cc5ccc(-n6c(C(=O)NCC)nnc6-c6cc(C(C)C)c(O)cc6O)cc5)CC4)N3C)nc3c2CCN(c2cccc4cccc(Cl)c24)C3)C[C@@H]1CC#N [Compound 263, 4-{4-[(4-{[(2R,5S)-5-({[7-(8-chloronaphthalen-1-yl)-4-[(3S)-3-(cyanomethyl)-4-(prop-2-enoyl)piperazin-1-yl]-5H,6H,8H-pyrido[3,4-d]pyrimidin-2-yl]oxy}methyl)-1-methylpyrrolidin-2-yl]methyl}piperazin-1-yl)methyl]phenyl}-5-(2,4-dihydroxy-5-isopropylphenyl)-N-ethyl-1,2,4-triazole-3-carboxamide]
< 6.00 | – | 100 to 1000 nM | – | C=CC(=O)N1CCN(c2nc(OC[C@@H]3C[C@H](N4CCN(Cc5ccc(-n6c(O)nnc6-c6cc(C)c(O)cc6O)cc5)CC4)CN3C)nc3c2CCN(c2cccc4ccccc24)C3)C[C@@H]1CC#N [Compound 270, 2-[(2S)-4-(2-{[(2S,4S)-4-[4-({4-[3-(2,4-dihydroxy-5-methylphenyl)-5-hydroxy-1,2,4-triazol-4-yl]phenyl}methyl)piperazin-1-yl]-1-methylpyrrolidin-2-yl]methoxy}-7-(naphthalen-1-yl)-5H,6H,8H-pyrido[3,4-d]pyrimidin-4-yl)-1-(prop-2-enoyl)piperazin-2-yl]acetonitrile]
– | – | > 1000 nM | 6.00 to 7.00 | C=CC(=O)N1CCN(c2nc(OCCN3CCC(C(=O)N4CCN(Cc5ccc(-n6c(C(=O)NCC(F)(F)F)nnc6-c6cc(C)c(O)cc6O)cc5)CC4)CC3)nc3c2CCN(c2cccc4cccc(Cl)c24)C3)C[C@@H]1CC#N [Compound 253, (S)-4-(4-((4-(1-(2-((4-(4-acryloyl-3-(cyanomethyl)piperazin-1-yl)-7-(8-chloronaphthalen-1-yl)-5,6,7,8-tetrahydropyrido[3,4-d]pyrimidin-2-yl)oxy)ethyl)piperidine-4-carbonyl)piperazin-1-yl)methyl)phenyl)-5-(2,4-dihydroxy-5-methylphenyl)-N-(2,2,2-trifluoroethyl)-4H-1,2,4-triazole-3-carboxamide]
6.00 to 7.00 | – | 100 to 1000 nM | – | C=CC(=O)N1CCN(c2nc(OC[C@@H]3CC[C@H](CN4CCN(Cc5ccc(-n6c(O)nnc6-c6cc(C(C)C)c(O)cc6O)cc5)CC4)N3C)nc3c2CCN(c2cccc4cccc(C)c24)C3)C[C@@H]1CC#N [Compound 273, 2-[(2S)-4-(2-{[(2S,5R)-5-{[4-({4-[3-(2,4-dihydroxy-5-isopropylphenyl)-5-hydroxy-1,2,4-triazol-4-yl]phenyl}methyl)piperazin-1-yl]methyl}-1-methylpyrrolidin-2-yl]methoxy}-7-(8-methylnaphthalen-1-yl)-5H,6H,8H-pyrido[3,4-d]pyrimidin-4-yl)-1-(prop-2-enoyl)piperazin-2-yl]acetonitrile]
> 7.00 | – | > 1000 nM | – | C=CC(=O)N1CCN(c2nc(OCCN3CCN(C(=O)C4CCN(Cc5ccc(-n6c(C(N)=O)nnc6-c6cc(C(C)C)c(O)cc6O)cc5)CC4)C[C@@H]3CN(C)C)nc3c2CCN(c2cccc4cccc(Cl)c24)C3)C[C@@H]1CC#N [Compound 260, 4-(4-((4-((S)-4-(2-((4-((S)-4-acryloyl-3-(cyanomethyl)piperazin-1-yl)-7-(8-chloronaphthalen-1-yl)-5,6,7,8-tetrahydropyrido[3,4-d]pyrimidin-2-yl)oxy)ethyl)-3-((dimethylamino)methyl)piperazine-1-carbonyl)piperidin-1-yl)methyl)phenyl)-5-(2,4-dihydroxy-5-isopropylphenyl)-4H-1,2,4-triazole-3-carboxamide]
6.00 to 7.00 | – | 100 to 1000 nM | – | C=CC(=O)N1CCN(c2nc(OC[C@@H]3C[C@H](N4CCN(Cc5ccc(-n6c(C(=O)NCC)nnc6-c6cc(C(C)C)c(O)cc6O)cc5)CC4)CN3C)nc3c2CCN(c2cccc4ccccc24)C3)C[C@@H]1CC#N [Compound 271, 4-[4-({4-[(3S,5S)-5-[({4-[(3S)-3-(cyanomethyl)-4-(prop-2-enoyl)piperazin-1-yl]-7-(naphthalen-1-yl)-5H,6H,8H-pyrido[3,4-d]pyrimidin-2-yl}oxy)methyl]-1-methylpyrrolidin-3-yl]piperazin-1-yl}methyl)phenyl]-5-(2,4-dihydroxy-5-isopropylphenyl)-N-ethyl-1,2,4-triazole-3-carboxamide]
– | – | > 1000 nM | < 6.00 | C=CC(=O)N1CCN(c2nc(OCCN3CCC(C(=O)N4CCN(Cc5ccc(-n6c(C(=O)NCC(F)(F)F)nnc6-c6cc(C)c(O)cc6O)cc5)CC4)CC3)nc3c2CCN(c2cccc4cccc(Cl)c24)C3)C[C@@H]1CC#N [Compound 254, (S)-4-(4-((4-(1-(2-((4-(4-acryloyl-3-(cyanomethyl)piperazin-1-yl)-7-(8-chloronaphthalen-1-yl)-5,6,7,8-tetrahydropyrido[3,4-d]pyrimidin-2-yl)oxy)ethyl)piperidine-4-carbonyl)piperazin-1-yl)methyl)phenyl)-5-(2,4-dihydroxy-5-methylphenyl)-N-(2,2,2-trifluoroethyl)-4H-1,2,4-triazole-3-carboxamide]
> 7.00 | – | < 100 nM | – | C=CC(=O)N1CCN(c2nc(OC[C@@H]3CC[C@H](CN4CCN(Cc5ccc(-n6c(O)nnc6-c6cc(C(C)C)c(O)cc6O)cc5)CC4)N3C)nc3c2CCN(c2cccc4ccccc24)C3)C[C@@H]1CC#N [Compound 272, 2-[(2S)-4-(2-{[(2S,5R)-5-{[4-({4-[3-(2,4-dihydroxy-5-isopropylphenyl)-5-hydroxy-1,2,4-triazol-4-yl]phenyl}methyl)piperazin-1-yl]methyl}-1-methylpyrrolidin-2-yl]methoxy}-7-(naphthalen-1-yl)-5H,6H,8H-pyrido[3,4-d]pyrimidin-4-yl)-1-(prop-2-enoyl)piperazin-2-yl]acetonitrile]
